The structures appear in SMILES notation.

The values that follow come from US11247976B2, “Synthetic ligands that modulate the activity of the RhlR quorum sensing receptor” (Wisconsin Alumni Research Foundation, priority 2016, dated 2022).

This assay concerns the target T1, RhlR (Pseudomonas aeruginosa, UniProt P54292).
T1 construct: expressed in transfected cells; host or cells: E. coli JLD271 (ΔsdiA) with pJN105R2 (arabinose-induced) and pSC11-rhlI*
The assay is described as follows: P. aeruginosa RhlR reporter antagonism assay vs 10 μM BHL (PAO-JP2/prhlI-LVAgfp). In kind it is cell-based. On the procedure:
FIGS. 10A and B illustrate exemplary dose-response curves for RhlR antagonism in the E. coli JLD271/pJN105R2/pSC11-rhlI* reporter strain vs. 10 μM BHL (FIG. 10A) and in the P. aeruginosa PAO-JP2/prhlI-LVAgfp reporter strain vs. 10 μM BHL (FIG. 10B).
To evaluate the RhlR-modulatory activities of selected compounds in P. aeruginosa, the ΔlasIrhlI strain PAO-JP2 harboring plasmid prhlI-LVAgfp was used as previously reported.^38 Briefly, a subculture was prepared by diluting an overnight culture 1:100 in fresh LB and was grown to OD600=0.3. […] Subculture was treated with 100 nM OdDHL (to induce native expression of RhlR) by adding the appropriate amount of OdDHL stock solution in DMSO. The subculture was then dispensed ([…] aliquots) into each synthetic compound-containing well of the microtiter plate.
Plates were incubated at 37° C. for 6 h, and GFP production was monitored by using a Synergy 2 plate reader (λex=500 nm, λem=540 nm; BioTek, Winooski, Vt.) and quantified with Gen5 1.05 software (BioTek). The final OD600 for each well was measured to normalize GFP production to cell density. All synthetic compounds were tested in triplicate, and three separate trials were performed with unique cultures. Agonism dose-response analyses were performed by testing compounds over a range of concentrations with the RhlR reporter.

T1 sequence (P54292 whole entry): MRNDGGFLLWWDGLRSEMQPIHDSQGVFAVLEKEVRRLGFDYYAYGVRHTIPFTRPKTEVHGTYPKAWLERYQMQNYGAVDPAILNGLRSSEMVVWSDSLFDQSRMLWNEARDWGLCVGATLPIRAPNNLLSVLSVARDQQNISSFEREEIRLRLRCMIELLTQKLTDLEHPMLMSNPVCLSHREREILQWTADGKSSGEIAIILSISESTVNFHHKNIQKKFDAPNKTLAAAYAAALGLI

Turning to `O=C(COc1ccc(I)cc1)N[C@H]1CCSC1=O` [RN22], under “P. aeruginosa”, the “concentration blocking native ligand activity by 50%, relative to EC50 of native ligand” value is on record as “less than 4 fold”. Further, the “RhlR antagonist activity in words” value (P. aeruginosa reporter vs 10 μM BHL) is recorded as “maintained its strong inhibitory profile”. Moreover, the IC50 (P. aeruginosa reporter vs 10 μM BHL, read-out: IC50 for RhlR inhibition) came to 31 µM. Besides, the “Maximum Inhibition (%)” value (P. aeruginosa reporter, relative to activation of 10 μM BHL alone) came to 85%.

As usually defined, the IC50 is the point on the concentration scale where inhibition reaches its midpoint.
